# Assay results: patent publication US20240360146A1, “BRUTON'S TYROSINE KINASE AND MUTANT DEGRADER, COMPOSITION AND APPLICATION THEREOF” (HANGZHOU HEALZEN THERAPEUTICS CO., LTD., priority 2021, published 2024)
# Biological target: T1, BTK (Homo sapiens, UniProt Q06187)
# T1 construct: endogenous in cells; host or cells: Mino cells
# Test: BTK degradation activity test in Mino cells
# Format: cell-based
# Details: 16 h incubation, Western blot or Elisa
# Procedure, shortened: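 Mino cells treated with a concentration series of compound for 16 h, then lysed; total protein by BCA. BTK quantified by Western blot or ELISA, degradation rate calculated against blank control, and DC50 fitted from the degradation curve.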
# T1 sequence (Q06187 whole entry): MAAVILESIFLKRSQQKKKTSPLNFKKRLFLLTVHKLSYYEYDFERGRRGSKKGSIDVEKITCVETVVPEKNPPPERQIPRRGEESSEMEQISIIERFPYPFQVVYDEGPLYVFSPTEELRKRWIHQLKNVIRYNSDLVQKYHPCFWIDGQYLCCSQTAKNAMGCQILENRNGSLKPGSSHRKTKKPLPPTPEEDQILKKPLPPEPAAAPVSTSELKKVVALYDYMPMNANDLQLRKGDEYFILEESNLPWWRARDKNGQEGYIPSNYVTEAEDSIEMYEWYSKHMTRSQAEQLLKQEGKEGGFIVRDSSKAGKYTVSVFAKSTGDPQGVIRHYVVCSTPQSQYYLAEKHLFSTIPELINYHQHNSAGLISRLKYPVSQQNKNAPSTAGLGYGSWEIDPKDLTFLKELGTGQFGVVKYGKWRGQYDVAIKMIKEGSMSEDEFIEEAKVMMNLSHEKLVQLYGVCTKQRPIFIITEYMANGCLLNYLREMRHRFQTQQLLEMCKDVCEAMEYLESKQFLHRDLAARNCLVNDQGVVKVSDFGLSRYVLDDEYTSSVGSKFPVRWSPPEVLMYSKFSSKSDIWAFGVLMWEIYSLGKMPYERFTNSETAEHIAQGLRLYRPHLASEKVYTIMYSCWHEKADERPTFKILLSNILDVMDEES
row,SMILES,DC50 [nM]
1,"CN1C(=O)N(C2CCCN(c3nnc(C(N)=O)c(Nc4ccc(C5CCN(CC6CCN(c7ccc8c(c7)C(=O)N(C7CCC(=O)NC7=O)C8=O)CC6)CC5)cc4)n3)C2)CC12CCC2 (centres unmarked) [Compound 069, 5-((4-(1-((1-(2-(2,6-dioxopiperidin-3-yl)-1,3-dioxoisoindol-5-yl)piperidin-4-yl)methyl)piperidin-4-yl)phenyl)amino)-3-(3-(5-methyl-6-oxo-5,7-diazaspirocyclo[3.4]octan-7-yl)piperidin-1-yl)-1,2,4-triazin-6-carboxamide]",< 1
2,"CN1CCN(C2CC3CC2N(c2nnc(C(N)=O)c(Nc4ccc(C5CCN(CC6CCN(c7ccc8c(c7)C(=O)N(C7CCC(=O)NC7=O)C8=O)CC6)CC5)cc4)n2)C3)C1=O (centres unmarked) [Compound 071, 5-((4-(1-((1-(2-(2,6-dioxopiperidin-3-yl)-1,3-dioxoisoindol-5-yl)piperidin-4-yl)methyl)piperidin-4-yl)phenyl)amino)-3-(6-(3-methyl-2-oxoimidazolin-1-yl)-2-azabicyclo[2.2.1]heptan-2-yl)-1,2,4-triazin-6-carboxamide]",> 1
3,"NC(=O)c1nnc(N2CC3CC(N4CCN(C5CCCC5)C4=O)C2C3)nc1Nc1ccc(C2CCN(CC3CCN(c4ccc5c(c4)C(=O)N(C4CCC(=O)NC4=O)C5=O)CC3)CC2)cc1 (centres unmarked) [Compound 072, 3-(6-(3-cyclopentyl-2-oxoimidazolin-1-yl)-2-azabicyclo[2.2.1]heptan-2-yl)-5-((4-(1-((1-(2-(2,6-dioxopiperidin-3-yl)-1,3-dioxoisoindol-5-yl)piperidin-4-yl)methyl)piperidin-4-yl)phenyl)amino)-1,2,4-triazin-6-carboxamide]",< 1
4,"NC(=O)c1nnc(N2CC3CC(N4CC5CCCN5C4=O)C2C3)nc1Nc1ccc(C2CCN(CC3CCN(c4ccc5c(c4)C(=O)N(C4CCC(=O)NC4=O)C5=O)CC3)CC2)cc1 (centres unmarked) [Compound 074, 5-((4-(1-((1-(2-(2,6-dioxopiperidin-3-yl)-1,3-dioxoisoindol-5-yl)piperidin-4-yl)methyl)piperidin-4-yl)phenyl)amino)-3-(6-(3-oxotetrahydro-1H-pyrrolo[1,2-c]imidazol-2(3H)-yl)-2-azabicyclo[2.2.1]heptan-2-yl)-1,2,4-triazin-6-carboxamide]",< 1
5,"CN1CCN(C2CC3CCC2N(c2nnc(C(N)=O)c(Nc4ccc(C5CCN(CC6CCN(c7ccc8c(c7)C(=O)N(C7CCC(=O)NC7=O)C8=O)CC6)CC5)cc4)n2)C3)C1=O (centres unmarked) [Compound 075, 5-((4-(1-((1-(2-(2,6-dioxopiperidin-3-yl)-1,3-dioxoisoindol-5-yl)piperidin-4-yl)methyl)piperidin-4-yl)phenyl)amino)-3-(6-(3-methyl-2-oxoimidazolin-1-yl)-2-azabicyclo[2.2.2]octan-2-yl)-1,2,4-triazin-6-carboxamide]",> 1
6,"CN1CCN(C2CCCN(c3nnc(C(N)=O)c(Nc4ccc(C5(C)CCN(C6CN(c7ccc8c(c7)C(=O)N(C7CCC(=O)NC7=O)C8=O)C6)CC5)cc4)n3)C2)C1=O (centres unmarked) [Compound 079, 5-((4-(1-(1-(2-(2,6-dioxopiperidin-3-yl)-1,3-dioxoisoindol-5-yl)azetidin-3-yl)-4-methylpiperidin-4-yl)phenyl)amino)-3-(3-(3-methyl-2-oxoimidazolin-1-yl)piperidin-1-yl)-1,2,4-triazin-6-carboxamide]",< 1
7,CN1CCN(C2CCCN(c3nnc(C(N)=O)c(Nc4ccc5c(c4)CCN(C4CN(c6ccc7c(c6)C(=O)N(C6CCC(=O)NC6=O)C7=O)C4)C5)n3)C2)C1=O (centres unmarked) [Compound 080],< 1
8,"CN1CCN(C2CCCN(c3nnc(C(N)=O)c(Nc4ccc5c(c4)CCN(CC4CCN(c6ccc7c(c6)C(=O)N(C6CCC(=O)NC6=O)C7=O)CC4)C5)n3)C2)C1=O (centres unmarked) [Compound 081, 5-((2-((1-(2-(2,6-dioxopiperidin-3-yl)-1,3-dioxoisoindol-5-yl)piperidin-4-yl)methyl)-1,2,3,4-tetrahydroisoquinolin-6-yl)amino)-3-(3-(3-methyl-2-oxoimidazolin-1-yl)piperidin-1-yl)-1,2,4-triazin-6-carboxamide]",< 1
9,"CN1CCN(C2CCCN(c3nnc(C(N)=O)c(Nc4ccc(N5CCN(CC6CCN(c7ccc8c(c7)C(=O)N(C7CCC(=O)NC7=O)C8=O)CC6)CC5)cc4)n3)C2)C1=O (centres unmarked) [Compound 082, 5-((4-(4-((1-(2-(2,6-dioxopiperidin-3-yl)-1,3-dioxoisoindol-5-yl)piperidin-4-yl)methyl)piperazin-1-yl)phenyl)amino)-3-(3-(3-methyl-2-oxoimidazolin-1-yl)piperidin-1-yl)-1,2,4-triazin-6-carboxamide]",< 1
10,CN1CCN(C2CCCN(c3nnc(C(N)=O)c(Nc4ccc(N5CCC(N6CCN(CC#Cc7ccc8c(c7)CN(C7CCC(=O)NC7=O)C8=O)CC6)CC5)cc4)n3)C2)C1=O (centres unmarked) [Compound 084],< 1
11,"CN1CCN(C2CCCN(c3nnc(C(N)=O)c(Nc4ccc(C5CCN(CC6CCN(c7ccc8c(c7)C(=O)N(C7CCC(=O)NC7=O)C8)CC6)CC5)cc4)n3)C2)C1=O (centres unmarked) [Compound 086, 5-((4-(1-((1-(2-(2,6-dioxopiperidin-3-yl)-3-oxoisoindol-5-yl)piperidin-4-yl)methyl)piperidin-4-yl)phenyl)amino)-3-(3-(3-methyl-2-oxoimidazolin-1-yl)piperidin-1-yl)-1,2,4-triazin-6-carboxamide]",< 1
12,"CN1CCN(C2CCCN(c3nnc(C(N)=O)c(Nc4ccc(C5CCN(CC6CCN(c7ccc8c(c7)CN(C7CCC(=O)NC7=O)C8=O)CC6)CC5)cc4)n3)C2)C1=O (centres unmarked) [Compound 087, 5-((4-(1-((1-(2-(2,6-dioxopiperidin-3-yl)-1-oxoisooctyl-5-yl)piperidin-4-yl)methyl)piperidin-4-yl)phenyl)amino)-3-(3-(3-methyl-2-oxyimidazolin-1-yl)piperidin-1-yl)-1,2,4-triazin-6-carboxamide]",< 1
13,"CN1CCN(C2CCCN(c3nnc(C(N)=O)c(Nc4ccc(C5CCN(CC6CCN(c7ccc8c(c7)n(C)c(=O)n8C7CCC(=O)NC7=O)CC6)CC5)cc4)n3)C2)C1=O (centres unmarked) [Compound 088, 5-((4-(1-((1-(1-(2,6-dioxopiperidin-3-yl)-3-methyl-2-oxo-2,3-dihydro-1H-benzo[d]imidazol-5-yl)piperidin-4-yl)methyl)piperidin-4-yl)phenyl)amino)-3-(3-(3-methyl-2-oxoimidazolin-1-yl)piperidin-1-yl)-1,2,4-triazin-6-carboxamide]",< 1

# Other lines, results leading:
row,DC50 [nM],SMILES
1,< 1,"CN1C(=O)N(C2CCCN(c3nnc(C(N)=O)c(Nc4ccc(C5CCN(CC6CCN(c7ccc8c(c7)C(=O)N(C7CCC(=O)NC7=O)C8=O)CC6)CC5)cc4)n3)C2)CC12CC2 (centres unmarked) [Compound 068, 5-((4-(1-((1-(2-(2,6-dioxopiperidin-3-yl)-1,3-dioxoisoindol-5-yl)piperidin-4-yl)methyl)piperidin-4-yl)phenyl)amino)-3-(3-(4-methyl-5-oxo-4,6-diazaspirocyclo[2.4]heptan-6-yl)piperidin-1-yl)-1,2,4-triazin-6-carboxamide]"
2,< 1,"NC(=O)c1nnc(N2CCCC(N3CC4CCCN4C3=O)C2)nc1Nc1ccc(C2CCN(CC3CCN(c4ccc5c(c4)C(=O)N(C4CCC(=O)NC4=O)C5=O)CC3)CC2)cc1 (centres unmarked) [Compound 070, 5-((4-(1-((1-(2-(2,6-dioxopiperidin-3-yl)-1,3-dioxoisoindol-5-yl)piperidin-4-yl)methyl)piperidin-4-yl)phenyl)amino)-3-(3-(3-oxytrihydro-1H-pyrrolo[1,2-c]imidazol-2(3H)-yl)piperidin-1-yl)-1,2,4-triazin-6-carboxamide]"
3,< 1,"CN1CCN(C2CCCN(c3nnc(C(N)=O)c(Nc4ccc(C5CCN(CC6CCN(c7ccc8c(c7)C(=O)N(C7CCC(=O)NC7=O)C8=O)C6)CC5)cc4)n3)C2)C1=O (centres unmarked) [Compound 076, 5-((4-(1-((1-(2-(2,6-dioxopiperidin-3-yl)-1,3-dioxoisooctyl-5-yl)pyrrolidin-3-yl)methyl)piperidin-4-yl)phenyl)amino)-3-(3-(3-methyl-2-oxoimidazolin-1-yl)piperidin-1-yl)-1,2,4-triazin-6-carboxamide]"
4,< 1,"CN1CCN(C2CCCN(c3nnc(C(N)=O)c(Nc4ccc(C5CCN(C6CN(c7ccc8c(c7)C(=O)N(C7CCC(=O)NC7=O)C8=O)C6)CC5)cc4)n3)C2)C1=O (centres unmarked) [Compound 077, 5-((4-(1-(1-(2-(2,6-dioxopiperidin-3-yl)-1,3-dioxoisoindol-5-yl)azetidin-3-yl)piperidin-4-yl)phenyl)amino)-3-(3-(3-methyl-2-oxoimidazolin-1-yl)piperidin-1-yl)-1,2,4-triazin-6-carboxamide]"
5,< 1,"CN1CCN(C2CCCN(c3nnc(C(N)=O)c(Nc4ccc(C5(C)CCN(C6CCN(c7ccc8c(c7)C(=O)N(C7CCC(=O)NC7=O)C8=O)CC6)CC5)cc4)n3)C2)C1=O (centres unmarked) [Compound 078, 5-((4-(1′-(2-(2,6-dioxopiperidin-3-yl)-1,3-dioxoisoindol-5-yl)-4-methyl-[1,4′-bipiperidin]-4-yl)phenyl)amino)-3-(3-(3-methyl-2-oxoimidazolidin-1-yl)piperidin-1-yl)-1,2,4-triazin-6-carboxamide]"
6,< 1,"CN1CCN(C2CCCN(c3nnc(C(N)=O)c(Nc4ccc(C5CCN(C6CCN(c7ccc8c(c7)C(=O)N(C7CCC(=O)NC7=O)C8=O)CC6)CC5)cc4)n3)C2)C1=O (centres unmarked) [Compound 083, 5-((4-(1′-(2-(2,6-dioxopiperidin-3-yl)-1,3-dioxoisoindol-5-yl)-[1,4′-bipiperidin]-4-yl)phenyl)amino)-3-(3-(3-methyl-2-oxoimidazolin-1-yl)piperidin-1-yl)-1,2,4-triazin-6-carboxamide]"
7,< 1,"CN1CCN(C2CCCN(c3nnc(C(N)=O)c(Nc4ccc(C5CCN(CC6CCN(c7cc8c(cc7F)C(=O)N(C7CCC(=O)NC7=O)C8=O)CC6)CC5)cc4)n3)C2)C1=O (centres unmarked) [Compound 085, 5-((4-(1-((1-(2-(2,6-dioxopiperidin-3-yl)-6-fluoro-1,3-dioxoisoindol-5-yl)piperidin-4-yl)methyl)piperidin-4-yl)phenyl)amino)-3-(3-(3-methyl-2-oxoimidazolin-1-yl)piperidin-1-yl)-1,2,4-triazin-6-carboxamide]"
